# Measured values reported in PubChem BioAssay (NCI).
#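 Results reflect a 48-hour exposure of cells in 96-well plates to compound at five concentrations. GI50 = concentration required for 50% inhibition of growth. TGI: total growth inhibition.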
# What was measured:
# Assay in all cases: NCI-60 cell line screen, 48 h
# NCI/ADR-RES ovarian = system: NCI/ADR-RES ovarian
# A549 NSCLC = system: A549 NSCLC
# SK-OV-3 ovarian = system: SK-OV-3 ovarian
# SN12C renal = system: SN12C renal
# 786-0 renal = system: 786-0 renal
# SNB-75 CNS = system: SNB-75 CNS
# HOP-62 NSCLC = system: HOP-62 NSCLC
# NCI-H522 lung = system: NCI-H522 lung
# OVCAR-3 ovarian = system: OVCAR-3 ovarian
# HT29 colon = system: HT29 colon
# COLO 205 colon = system: COLO 205 colon
# SF-539 CNS = system: SF-539 CNS
# NCI-H226 lung = system: NCI-H226 lung
# OVCAR-8 ovarian = system: OVCAR-8 ovarian
# MOLT-4 leukemia = system: MOLT-4 leukemia
# SR leukemia = system: SR leukemia
# NCI-H460 lung = system: NCI-H460 lung
# A498 renal = system: A498 renal
# SF-295 CNS = system: SF-295 CNS
# HCT-116 colon = system: HCT-116 colon
# NCI-H23 lung = system: NCI-H23 lung
# SK-MEL-28 melanoma = system: SK-MEL-28 melanoma
# CAKI-1 renal = system: CAKI-1 renal
# BT-549 breast = system: BT-549 breast
# M14 melanoma = system: M14 melanoma
# U251 CNS = system: U251 CNS
# SF-268 CNS = system: SF-268 CNS
# IGROV1 ovarian = system: IGROV1 ovarian
# HCC-2998 colon = system: HCC-2998 colon
# OVCAR-5 ovarian = system: OVCAR-5 ovarian
# LOX IMVI melanoma = system: LOX IMVI melanoma
# SNB-19 CNS = system: SNB-19 CNS
# HOP-92 NSCLC = system: HOP-92 NSCLC
# HS 578T breast = system: HS 578T breast
# T-47D breast = system: T-47D breast
# PC-3 prostate = system: PC-3 prostate
# K-562 leukemia = system: K-562 leukemia
# SK-MEL-5 melanoma = system: SK-MEL-5 melanoma
# UACC-257 melanoma = system: UACC-257 melanoma
# HCT-15 colon = system: HCT-15 colon
# UACC-62 melanoma = system: UACC-62 melanoma
# HL-60(TB) leukemia = system: HL-60(TB) leukemia
# MDA-MB-231 breast = system: MDA-MB-231 breast
# MALME-3M melanoma = system: MALME-3M melanoma
# DU-145 prostate = system: DU-145 prostate
# RPMI-8226 leukemia = system: RPMI-8226 leukemia
# ACHN renal = system: ACHN renal
# MCF7 breast = system: MCF7 breast
# KM12 colon = system: KM12 colon
# SW-620 colon = system: SW-620 colon
# OVCAR-4 ovarian = system: OVCAR-4 ovarian
# EKVX NSCLC = system: EKVX NSCLC
# RXF 393 renal = system: RXF 393 renal
# CCRF-CEM leukemia = system: CCRF-CEM leukemia
# SK-MEL-2 melanoma = system: SK-MEL-2 melanoma
# MDA-MB-435 = system: MDA-MB-435
# UO-31 renal = system: UO-31 renal
# TK-10 renal = system: TK-10 renal
# MDA-N = system: MDA-N
compound,measurement,setting,value
O=c1[nH]c(=O)c2cn[nH]c2[nH]1,GI50,NCI/ADR-RES ovarian,> 100 µM
same,TGI,NCI/ADR-RES ovarian,> 100 µM
same,GI50,A549 NSCLC,> 100 µM
same,TGI,A549 NSCLC,> 100 µM
same,GI50,SK-OV-3 ovarian,> 100 µM
same,TGI,SK-OV-3 ovarian,> 100 µM
same,GI50,SN12C renal,> 100 µM
same,TGI,SN12C renal,> 100 µM
same,GI50,786-0 renal,> 100 µM
same,TGI,786-0 renal,> 100 µM
same,GI50,SNB-75 CNS,> 100 µM
same,TGI,SNB-75 CNS,> 100 µM
same,GI50,HOP-62 NSCLC,> 100 µM
same,TGI,HOP-62 NSCLC,> 100 µM
same,GI50,NCI-H522 lung,> 100 µM
same,TGI,NCI-H522 lung,> 100 µM
same,GI50,OVCAR-3 ovarian,> 100 µM
same,TGI,OVCAR-3 ovarian,> 100 µM
same,GI50,HT29 colon,> 100 µM
same,TGI,HT29 colon,> 100 µM
same,GI50,COLO 205 colon,> 100 µM
same,TGI,COLO 205 colon,> 100 µM
same,GI50,SF-539 CNS,> 100 µM
same,TGI,SF-539 CNS,> 100 µM
same,GI50,NCI-H226 lung,> 100 µM
same,TGI,NCI-H226 lung,> 100 µM
same,GI50,OVCAR-8 ovarian,> 100 µM
same,TGI,OVCAR-8 ovarian,> 100 µM
same,GI50,MOLT-4 leukemia,> 100 µM
same,TGI,MOLT-4 leukemia,> 100 µM
same,GI50,SR leukemia,> 100 µM
same,TGI,SR leukemia,> 100 µM
same,GI50,NCI-H460 lung,> 100 µM
same,TGI,NCI-H460 lung,> 100 µM
same,GI50,A498 renal,> 100 µM
same,TGI,A498 renal,> 100 µM
same,GI50,SF-295 CNS,> 100 µM
same,TGI,SF-295 CNS,> 100 µM
same,GI50,HCT-116 colon,> 100 µM
same,TGI,HCT-116 colon,> 100 µM
same,GI50,NCI-H23 lung,> 100 µM
same,TGI,NCI-H23 lung,> 100 µM
same,GI50,SK-MEL-28 melanoma,> 100 µM
same,TGI,SK-MEL-28 melanoma,> 100 µM
same,GI50,CAKI-1 renal,> 100 µM
same,TGI,CAKI-1 renal,> 100 µM
same,GI50,BT-549 breast,> 100 µM
same,TGI,BT-549 breast,> 100 µM
same,GI50,M14 melanoma,> 100 µM
same,TGI,M14 melanoma,> 100 µM
same,GI50,U251 CNS,> 100 µM
same,TGI,U251 CNS,> 100 µM
same,GI50,SF-268 CNS,> 100 µM
same,TGI,SF-268 CNS,> 100 µM
same,GI50,IGROV1 ovarian,> 100 µM
same,TGI,IGROV1 ovarian,> 100 µM
same,GI50,HCC-2998 colon,> 100 µM
same,TGI,HCC-2998 colon,> 100 µM
same,GI50,OVCAR-5 ovarian,> 100 µM
same,TGI,OVCAR-5 ovarian,> 100 µM
same,GI50,LOX IMVI melanoma,> 100 µM
same,TGI,LOX IMVI melanoma,> 100 µM
same,GI50,SNB-19 CNS,> 100 µM
same,TGI,SNB-19 CNS,> 100 µM
same,GI50,HOP-92 NSCLC,> 100 µM
same,TGI,HOP-92 NSCLC,> 100 µM
same,GI50,HS 578T breast,> 100 µM
same,TGI,HS 578T breast,> 100 µM
same,GI50,T-47D breast,> 100 µM
same,TGI,T-47D breast,> 100 µM
same,GI50,PC-3 prostate,> 100 µM
same,TGI,PC-3 prostate,> 100 µM
same,GI50,K-562 leukemia,> 100 µM
same,TGI,K-562 leukemia,> 100 µM
same,GI50,SK-MEL-5 melanoma,> 100 µM
same,TGI,SK-MEL-5 melanoma,> 100 µM
same,GI50,UACC-257 melanoma,> 100 µM
same,TGI,UACC-257 melanoma,> 100 µM
same,GI50,HCT-15 colon,> 100 µM
same,TGI,HCT-15 colon,> 100 µM
same,GI50,UACC-62 melanoma,> 100 µM
same,TGI,UACC-62 melanoma,> 100 µM
same,GI50,HL-60(TB) leukemia,> 100 µM
same,TGI,HL-60(TB) leukemia,> 100 µM
same,GI50,MDA-MB-231 breast,> 100 µM
same,TGI,MDA-MB-231 breast,> 100 µM
same,GI50,MALME-3M melanoma,> 100 µM
same,TGI,MALME-3M melanoma,> 100 µM
same,GI50,DU-145 prostate,> 100 µM
same,TGI,DU-145 prostate,> 100 µM
same,GI50,RPMI-8226 leukemia,> 100 µM
same,TGI,RPMI-8226 leukemia,> 100 µM
same,GI50,ACHN renal,> 100 µM
same,TGI,ACHN renal,> 100 µM
same,GI50,MCF7 breast,> 100 µM
same,TGI,MCF7 breast,> 100 µM
same,GI50,KM12 colon,> 100 µM
same,TGI,KM12 colon,> 100 µM
same,GI50,SW-620 colon,> 100 µM
same,TGI,SW-620 colon,> 100 µM
same,GI50,OVCAR-4 ovarian,> 100 µM
same,TGI,OVCAR-4 ovarian,> 100 µM
same,GI50,EKVX NSCLC,> 100 µM
same,TGI,EKVX NSCLC,> 100 µM
same,GI50,RXF 393 renal,> 100 µM
same,TGI,RXF 393 renal,> 100 µM
same,GI50,CCRF-CEM leukemia,> 100 µM
same,TGI,CCRF-CEM leukemia,> 100 µM
same,GI50,SK-MEL-2 melanoma,> 100 µM
same,TGI,SK-MEL-2 melanoma,> 100 µM
same,GI50,MDA-MB-435,> 100 µM
same,TGI,MDA-MB-435,> 100 µM
same,GI50,UO-31 renal,> 100 µM
same,TGI,UO-31 renal,> 100 µM
same,GI50,TK-10 renal,> 100 µM
same,TGI,TK-10 renal,> 100 µM
CN1Cc2cc3cc4c(cc3nc2N(C)C1)OCCO4,TGI,NCI/ADR-RES ovarian,> 100 µM
same,TGI,A549 NSCLC,> 100 µM
same,TGI,SK-OV-3 ovarian,> 100 µM
same,TGI,SN12C renal,> 100 µM
same,TGI,786-0 renal,> 100 µM
same,TGI,SNB-75 CNS,> 100 µM
same,TGI,HOP-62 NSCLC,> 100 µM
same,TGI,NCI-H522 lung,> 100 µM
same,TGI,HT29 colon,> 100 µM
same,TGI,COLO 205 colon,> 100 µM
same,TGI,SF-539 CNS,> 100 µM
same,TGI,NCI-H226 lung,> 100 µM
same,TGI,OVCAR-8 ovarian,> 100 µM
same,TGI,MOLT-4 leukemia,> 100 µM
same,TGI,NCI-H460 lung,> 100 µM
same,TGI,A498 renal,> 100 µM
same,TGI,SF-295 CNS,> 100 µM
same,TGI,HCT-116 colon,> 100 µM
same,TGI,CAKI-1 renal,> 100 µM
same,TGI,BT-549 breast,> 100 µM
same,TGI,M14 melanoma,> 100 µM
same,TGI,U251 CNS,> 100 µM
same,TGI,SF-268 CNS,> 100 µM
same,TGI,IGROV1 ovarian,> 100 µM
same,TGI,HCC-2998 colon,> 100 µM
same,TGI,OVCAR-5 ovarian,> 100 µM
same,TGI,LOX IMVI melanoma,> 100 µM
same,TGI,SNB-19 CNS,> 100 µM
same,TGI,HOP-92 NSCLC,> 100 µM
same,TGI,PC-3 prostate,> 100 µM
same,TGI,MDA-N,> 100 µM
same,TGI,K-562 leukemia,> 100 µM
same,TGI,SK-MEL-5 melanoma,> 100 µM
same,TGI,UACC-257 melanoma,> 100 µM
same,TGI,HCT-15 colon,> 100 µM
same,TGI,UACC-62 melanoma,> 100 µM
same,TGI,MDA-MB-231 breast,> 100 µM
same,TGI,MALME-3M melanoma,> 100 µM
same,TGI,RPMI-8226 leukemia,> 100 µM
same,TGI,ACHN renal,> 100 µM
same,TGI,MCF7 breast,> 100 µM
same,TGI,KM12 colon,> 100 µM
same,TGI,SW-620 colon,> 100 µM
same,TGI,OVCAR-4 ovarian,> 100 µM
same,TGI,EKVX NSCLC,> 100 µM
same,TGI,RXF 393 renal,> 100 µM
same,TGI,CCRF-CEM leukemia,> 100 µM
same,TGI,SK-MEL-2 melanoma,> 100 µM
same,TGI,MDA-MB-435,> 100 µM
same,TGI,TK-10 renal,> 100 µM
